Test results from patent US5010104A, “Tricyclic compounds” (Kyowa Hakko Kogyo Co., Ltd., priority 1987, dated 1991).

Columns and labels:
[1] = biological target: T1, TXA2 /prostaglandin H2 receptor (Cavia porcellus, UniProt A0A286Y4I8); test: Test on Anti-platelet Activity (TXA2 Antagonizing Test): inhibition of U-46619-induced platelet aggregation in guinea pig platelet rich plasma; format: cell-based; conditions: minimum concentration inhibiting platelet aggregation by 30% or more; U-46619 0.5-1 μM; guinea pig PRP; 3 minutes pretreatment
T1 construct: platelet rich plasma (PRP) was collected; endogenous in cells; host or cells: platelets in platelet rich plasma from male guinea pigs (Hartley strain)
T1 sequence (A0A286Y4I8 1-347): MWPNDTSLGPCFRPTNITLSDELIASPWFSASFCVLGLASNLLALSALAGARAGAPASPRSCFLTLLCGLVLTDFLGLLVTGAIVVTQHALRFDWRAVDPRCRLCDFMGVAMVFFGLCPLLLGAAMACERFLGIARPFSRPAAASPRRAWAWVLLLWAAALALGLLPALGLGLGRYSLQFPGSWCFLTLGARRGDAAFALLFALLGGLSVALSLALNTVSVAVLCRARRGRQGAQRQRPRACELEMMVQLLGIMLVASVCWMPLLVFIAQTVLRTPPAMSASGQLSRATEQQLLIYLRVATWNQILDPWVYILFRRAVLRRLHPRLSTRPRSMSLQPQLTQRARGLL
Method: Test on Anti-platelet Activity (TXA2 Antagonizing Test)
Using guinea pig platelet, influence of the compounds in accordance with the present invention on platelet aggregation induced by U-46619 (9,11-dideoxy-9α,11a-methanoepoxyprostaglandin F2 α; manufactured by Cayman Chemica Co., Ltd. ) which was a TXA2 /prostaglandin H2 receptor stimulant was examined.
Male guinea pig (Hartlet strain; body weight, 300 to 600 g) was anesthesized by intraperitoneal administration of sodium pentobarbital (30 mg/kg) and blood was collected from the descending aorta of the abdomen with a 1/10 volume of sodium citrate. By centrifugation (KC-70: manufactured by Kubota Co., Ltd.) at 800 rpm for 10 minutes, platelet rich plasma (PRP) was collected. Platelet aggregation induced by U-46619 (0.5-1 μM) was determined by photometry [Born, G. V. R. et al., Nature (London), 194, 927-929 (1962)]. A test compound was pretreated before 3 minutes and an ability of inhibiting aggregation was measured. The minimum concentration of inhibiting platelet aggregation by 30% or more was defined as the minimum effective concentration (MEC) of the test compound.

dd strain male mice = test: Acute Toxicity Test: minimum lethal dose, mortality observed for seven days; format: in vivo; conditions: mortality over seven days; for Acute Toxicity (MLD) ip: intraperitoneal (ip; 100 mg/kg); for Acute Toxicity (MLD) po: oral (po; 300 mg/kg)
Method: Using three dd strain male mice weighing 20±1 g, a test compound was orally (po; 300 mg/kg) or intraperiotoneally (ip; 100 mg/kg) administered. MLD (the minimum lethal dose) was determined by observing the mortality for seven days after administration.

| Compound | TXA2 Antagonizing Activity (MEC) [1] [µg/mL] | Acute Toxicity (MLD) ip (dd strain male mice) [mg/kg] | Acute Toxicity (MLD) po (dd strain male mice) [mg/kg] |
| --- | --- | --- | --- |
| O=C(O)COc1ccc(CCNS(=O)(=O)c2ccccc2)cc1 [BM13177, reference compound] | 3 | > 100 | > 300 |
| O=C(O)c1ccc2c(c1)C(SCCNS(=O)(=O)c1ccccc1)c1cc(Br)ccc1CO2 (stereo not drawn) [Compound 6b, 9-Bromo-11-[2-[(phenylsulfonyl)amino]ethyl]thio-6,11-dihydrodibenz[b,e]oxepin-2-carboxylic acid] | 0.03 | > 100 | > 300 |
| O=C(O)c1ccc2c(c1)C(SCCNS(=O)(=O)c1ccc(F)cc1)c1ccccc1CO2 (stereo not drawn) [Compound 10b, 11-[2-[(4-Fluorophenylsulfonyl)amino]ethyl]thio-6,11-dihydrodibenz[b,e]oxepin-2-carboxylic acid] | 0.3 | > 100 | > 300 |
| O=C(O)c1ccc2c(c1)C(SCCNS(=O)(=O)c1cccs1)c1ccccc1CO2 (stereo not drawn) [Compound 15b, 11-[2-[(2-Thienylsulfonyl)amino]ethyl]thio-6,11-dihydrodibenz[b,e]oxepin-2-carboxylic acid] | 0.3 | > 100 | > 300 |
| O=C(O)c1ccc2c(c1)C(SCCNS(=O)(=O)c1cccc3cccnc13)c1ccccc1CO2 (stereo not drawn) [Compound 16b, 11-[2-[(8-Quinolylsulfonyl)amino]ethyl]thio-6,11-dihydrodibenz[b,e]oxepin-2-carboxylic acid] | 3 | > 100 | > 300 |
| COc1ccccc1C(=O)NCCSC1c2ccccc2COc2ccc(C(=O)O)cc21 (stereo not drawn) [Compound 33b, 11-[2-[(2-Methoxybenzoyl)amino]ethyl]thio-6,11-dihydrodibenz[b,e]oxepin-2-carboxylic acid] | 0.3 | > 100 | > 300 |
| O=C(O)c1ccc2c(c1)C(SCCNS(=O)(=O)c1ccccc1)c1ccccc1CS2 (stereo not drawn) [Compound 55b, 11-[2-[(Phenylsulfonyl)amino]ethyl]thio-6,11-dihydrodibenzo[b,e]thiepin-2carboxylic acid] | 3 | > 100 | > 300 |
| O=C(O)Cc1ccc2c(c1)/C(=C/CCNS(=O)(=O)c1ccccc1)c1ccccc1CO2 [Compound E-29b] | 1 | > 100 | > 300 |
